From patent US20170166558A1, “O-GLCNAC TRANSFERASE (OGT) INHIBITORS AND USES THEREOF” (President and Fellows of Harvard College, priority 2014, published 2017)

Assays:
[1] = Aqueous solubility; format: physicochemical
[2] = system: OGT in CHO cells; assay: Immunoblotting of global O-GlcNAcylation (RL2) in CHO cells; format: cell-based, Chinese hamster
Description: (§1) In vivo inhibition of glycosylation: For all immunoblotting experiments, CHO-K1 (CHO) cells were grown in F12-K media supplemented with 10% FBS and antibiotics at 37° C. in a 5% CO2 incubator. Cells were treated by adding indicated inhibitor in DMSO vehicle (0.5% final vehicle concentration) upon reaching 70% confluence. After indicated treatment length, cells were harvested by aspirating growth media and washing with ice cold 1× PBS. Cells were subsequently lysed in boiling 1% SDS/20 mM HEPES 7.9. After cooling to room temperature, 1 mM PMSF, 10 μM PUGNAC, 10 μM TMG and 1× Complete protease inhibitor cocktail were added to the solution. The mixture was sonicated and then subjected to a 5 minute incubation at 95° C. The samples were centrifuged for 15 minutes at 20,000×g and the supernatant was collected and the total protein was measured by BCA assay (BIO-RAD).
(§2) The sample was separated by SDS-PAGE (Bio-Rad 4-15%, Cat: 345-0028), transferred to a nitrocellulose membrane (iBlot, Invitrogen) and probed with the indicated antibody. Tyipcally, membranes were blocked with 4% BSA in 1× TBS+0.04% tween-20 for 1 hour before incubating with antibody (typically diluted 1:1000 in 4% BSA inlx TBS+0.04% tween-20) overnight at 4° C. Membranes were then washed three times with 1× TBS+0.04% tween-20 and incubated with secondary antibody (typically diluted 1:5000 in 4% BSA in 1× TBS+0.04% tween-20) for 1 hour at room temperature. Lastly, membranes were washed 3× with 1× TBS+0.04% tween-20 and imaged with ECL. D283-Med cells were treated as above but grown in F12-K media supplemented with 10% FBS and antibiotics. HEK, HeLa and LNCaP cells were treated as above but grown in RPMI media supplemented with 10% FBS and antibiotics.

[3] = system: OGT in CHO cells; assay: Markers of OGT inhibition in CHO cells (Nup62 mass shift, OGA levels, H2B-S112 O-GlcNAc); format: cell-based, Chinese hamster
Description: as §1, §2

[4] = system: cell surface glycans of CHO cells; assay: Lectin blots of cell surface glycans of CHO cells; format: cell-based, Chinese hamster; details: 50 μM, 24 hours
Description: Lectin blots were performed with the CHO-K1 cell lysate as prepared above. […] The biotin label on the lectins was visualized with incubation with Streptavidin-HRP (Pierce) followed by ECL detection and imaging.

[5] = system: LNCaP cells; assay: LNCaP cell viability and c-Myc stability; format: cell-based, human; details: 50 μM
Description: as §2
(§3) Cell viability, cytotoxicity and apoptosis signaling assays were performed in a 96-well plate using ApoTox-Glo reagent (Promega) according to the manufacturer's instructions.

[6] = system: CHO cells; assay: ApoTox-Glo cell viability, cytotoxicity and apoptosis signaling assay; format: cell-based, Chinese hamster
Description: as §3

[7] = system: CHO, HEK-293, HeLa and D283-Med cells; assay: Immunoblotting of global O-GlcNAcylation in various mammalian cell types; format: cell-based; details: 50 μM, 24 hours
Description: as §1
The sample was separated by SDS-PAGE (Bio-Rad 4-15%, Cat: 345-0028), transferred to a nitrocellulose membrane (iBlot, Invitrogen) and probed with the indicated antibody. Tyipcally, membranes were blocked with 4% BSA in 1× TBS+0.04% tween-20 for 1 hour before incubating with antibody (typically diluted 1:1000 in 4% BSA inlx TBS+0.04% tween-20) overnight at 4° C. […]

## COc1ccccc1[C@@H](NS(=O)(=O)c1ccc2[nH]c(=O)ccc2c1)C(=O)N(Cc1ccco1)Cc1cccs1 [OSMI-1, (R)—N-(furan-2-ylmethyl)-2-(2-methoxyphenyl)-2-(2-oxo-1,2-dihydroquinoline-6-sulfonamido)-N-(thiophen-2-ylmethyl)acetamide]
[1]
  Aqueous solubility: limited aqueous solubility
[2]; 50 μM, 8-hour time course
  Onset of reduction of global O-GlcNAcylation: within two hours
[2]; 24 hr, 10-100 μM tested
  Concentration of maximal reduction of global O-GlcNAcylation: 50 µM
[3]
  Cellular OGA levels: reduced cellular OGA
  Nup62 mass shift: shift to a lower molecular weight
  O-GlcNAc modification of histone H2B-S112: greatly reduced
[4]
  Changes in bands detected by ConA, PHA-L, ECL, GSL-I, PNA or DBA: minimal changes
[5]; 48 hrs
  LNCaP cell viability: decrease in cell viability
[5]; LNCaP cells, 6 and 48 hours
  c-Myc stability: decreases c-Myc stability
[6]; 50 μM
  Cytotoxicity: not cytotoxic
[6]; 50 μM, 24 hours
  Decrease of cell viability: about 50%
[6]; up to 50 μM
  Apoptotic signaling: does not trigger apoptotic signaling
[7]
  Global O-GlcNAc levels in four cell lines: reduce global O-GlcNAc levels in all four lines examined
